Laboratory results from US20210101881A1 (Ancureall Pharmaceutical (Shanghai) Co., Ltd., priority 2018, published 2021).

What follows are molecules tested on MOLM13 cells (assay: Growth inhibition of CDK9-positive cell line MOLM13 in vitro (CCK8/MTT assay)). Conditions: Homo sapiens, MOLM-13, read-out: IC50 of the compound for inhibiting cell growth, MOLM13 cells.
Assay type: cell-based, human
Protocol: 1. MOLM13 cell line and cell culture MOLM13 is a CDK9-positive human acute myeloid leukemia cell line from DMSZ. Suspension culture was carried out in RPMI1640 (Gibco) medium with 10% fetal bovine serum (Gibco), 1% penicillin-streptomycin and 2 mM glutamine.
Suspended MOLM-13 cells in logarithmic growth phase were collected by centrifugation (1700 rpm, 3 minutes), the supernatant was discarded, and the cells were counted. A solution with a cell concentration of 2×10^5 cells per milliliter was formulated and inoculated in a 96-well plate (Corning) with 100 microliters per well. The plate was incubated at 37° C., 5% CO2 overnight. On the next day, the test compound was added to the cultured cells in two parallel wells. […]
The present compound and the control compounds were respectively dissolved in DMSO (Sigma).
When the solvent control well became dark yellow, the OD450 nm absorption value was measured, and the cell growth rate was calculated according to the following formula. Cell growth rate %=100*(T−T0)/(C−T0), wherein T=the optical density value of the drug-treated well—the optical density value of the blank control well, T0=the optical density value of the well before drug treatment—the optical density value of the blank control well, C=the optical density value of the solvent control well—the optical density value of the blank control well. […] The assay was repeated three times, and the data was subjected to a biological statistical analysis.
CN1CCN(CCN(C)c2ccc(Nc3nccc(-n4cc(C(N)=O)c5ccccc54)n3)cc2)CC1 [Compound 73, 1-[2-(4-{methyl-[2-(4-methyl-piperazin-1-yl)-ethyl]-amino}-phenylamino)-pyrimidin-4-yl]-1H-indole-3-carboxamide] showed an IC50 of 1 to 10 nM.

Same assay, conditions: Homo sapiens, MOLM-13; MOLM13 cells, cultured 3 to 6 days, CCK8; read-out: IC50 of the compound for inhibiting cell growth, MOLM13 cells
Cc1cc(Nc2nccc(-n3cc(C(N)=O)c4ccccc43)n2)ccc1N1CCC(N(C)C)CC1 [Compound 68, 1-{2-[4-(4-dimethylamino-piperidin-1-yl)-3-methyl-phenylamino]-pyrimidin-4-yl}-1H-indole-3-carboxamide] showed an IC50 of 1 to 10 nM. In the case of CN1CCCN(c2ccc(Nc3nccc(-n4cc(C(N)=O)c5ccccc54)n3)cc2)CC1 [Compound 69, 1-{2-[4-(4-methyl-[1,4]homopiperazin-1-yl)-phenylamino]-pyrimidin-4-yl}-1H-indole-3-carboxamide], the IC50 is reported as 1 to 10 nM. NC(=O)c1cn(-c2ccnc(Nc3ccc(N4CCOCC4)cc3)n2)c2ccccc12 [Compound 70, 1-[2-(4-morpholin-4-yl-phenylamino)-pyrimidin-4-yl]-1H-indole-3-carboxamide] was tested, and the IC50 was 10 to 100 nM. NC(=O)c1cn(-c2ccnc(Nc3ccc(N4CCOCC4)c(F)c3)n2)c2ccccc12 [Compound 71, 1-[2-(3-fluoro-4-morpholin-4-yl-phenylamino)-pyrimidin-4-yl]-1H-indole-3-carboxamide] showed an IC50 of 10 to 100 nM. CN(CCN1CCOCC1)c1ccc(Nc2nccc(-n3cc(C(N)=O)c4ccccc43)n2)cc1 [Compound 72, 1-(2-{4-[methyl-(2-morpholin-4-ethyl)-amino]-phenylamino}-pyrimidin-4-yl)-1H-indole-3-carboxamide] showed an IC50 of 10 to 100 nM. CC(=O)N1CCN(CCN(C)c2ccc(Nc3nccc(-n4cc(C(N)=O)c5ccccc54)n3)cc2)CC1 [Compound 74] showed an IC50 of 10 to 100 nM. CN(C)c1ccc(Nc2nccc(-n3cc(C(N)=O)c4ccccc43)n2)cc1 [Compound 75, 1-[2-(4-dimethylamino-phenylamino)-pyrimidin-4-yl]-1H-indole-3-carboxamide] showed an IC50 of 100 to 1000 nM. With CN(C)CCCN(C)c1ccc(Nc2nccc(-n3cc(C(N)=O)c4ccccc43)n2)cc1 [Compound 76, 1-(2-{4-[(3-dimethylamino-propyl)-methyl-amino]-phenylamino}-pyrimidin-4-yl)-1H-indole-3-carboxamide] the IC50 was 10 to 100 nM. CN(C)CCN(C)c1ccc(Nc2nccc(-n3cc(C(N)=O)c4ccccc43)n2)cc1 [Compound 77, 1-(2-{4-[(2-dimethylamino-ethyl)-methyl-amino]-phenylamino}-pyrimidin-4-yl)-1H-indole-3-carboxamide] gave an IC50 of 10 to 100 nM. CN(C)CCN(C)c1ccc(Nc2nccc(-n3cc(C(N)=O)c4ccccc43)n2)c(Br)c1 [Compound 78, 1-(2-{2-bromo-4-[(2-dimethylamino-ethyl)-methyl-amino]-phenylamino}-pyrimidin-4-yl)-1H-indole-3-carboxamide] was tested, and the IC50 was 100 to 1000 nM. Cc1cc(Nc2nccc(-n3cc(C(N)=O)c4ccccc43)n2)ccc1N(C)CCN(C)C [Compound 79, 1-(2-{4-[(2-dimethylamino-ethyl)-methyl-amino]-3-methyl-phenylamino}-pyrimidin-4-yl)-1H-indole-3-carboxamide] was tested, and the IC50 was 1 to 10 nM. Molecule COc1cc(Nc2nccc(-n3cc(C(N)=O)c4ccccc43)n2)ccc1N(C)CCN(C)C [Compound 80, 1-(2-{4-[(2-dimethylamino-ethyl)-methyl-amino]-3-methoxy-phenylamino}-pyrimidin-4-yl)-1H-indole-3-carboxamide] has an IC50 of 1 to 10 nM. With CC(C)Oc1cc(Nc2nccc(-n3cc(C(N)=O)c4ccccc43)n2)ccc1N(C)CCN(C)C [Compound 81, 1-(2-{4-[(2-dimethylamino-ethyl)-methyl-amino]-3-isopropoxy-phenylamino}-pyrimidin-4-yl)-1H-indole-3-carboxamide] the IC50 was 1 to 10 nM. With CN(C)CCN(C)c1ccc(Nc2nccc(-n3cc(C(N)=O)c4ccccc43)n2)cc1Cl [Compound 82, 1-(2-{3-chloro-4-[(2-dimethylamino-ethyl)-methyl-amino]-phenylamino}-pyrimidin-4-yl)-1H-indole-3-carboxamide] the IC50 was 10 to 100 nM. In the case of CN(C)CCCN(C)c1ccc(Nc2nccc(-n3cc(C(N)=O)c4ccccc43)n2)cc1Cl [Compound 83, 1-(2-{3-chloro-4-[(3-dimethylamino-propyl)-methyl-amino]-phenylamino}-pyrimidin-4-yl)-1H-indole-3-carboxamide], the IC50 is reported as 10 to 100 nM. Work on CN(C)CCN(C)c1ccc(Nc2ncc(F)c(-n3cc(C(N)=O)c4ccccc43)n2)cc1 [Compound 84, 1-(2-{4-[(2-dimethylamino-ethyl)-methyl-amino]-phenylamino}-5-fluoro-pyrimidin-4-yl)-1H-indole-3-carboxamide] yielded an IC50 of 1 to 10 nM. Molecule CN(C)CCN(C)c1ccc(Nc2ncc(Cl)c(-n3cc(C(N)=O)c4ccccc43)n2)cc1 [Compound 85, 1-(5-chloro-2-{4-[(2-dimethylamino-ethyl)-methyl-amino]-phenylamino}-pyrimidin-4-yl)-1H-indole-3-carboxamide] has an IC50 of 1 to 10 nM. Molecule COc1cc(Nc2ncc(F)c(-n3cc(C(N)=O)c4ccccc43)n2)ccc1N(C)CCN(C)C [Compound 86, 1-(2-{4-[(2-dimethylamino-ethyl)-methyl-amino]-3-methoxy-phenylamino}-5-fluoro-pyrimidin-4-yl)-1H-indole-3-carboxamide] has an IC50 of 1 to 10 nM. With COc1cc(Nc2ncc(Cl)c(-n3cc(C(N)=O)c4ccccc43)n2)ccc1N(C)CCN(C)C [Compound 87, 1-(2-{4-[(2-dimethylamino-ethyl)-methyl-amino]-3-methoxy-phenylamino}-5-chloro-pyrimidin-4-yl)-1H-indole-3-carboxamide] the IC50 was 1 to 10 nM. With CN(CCN1CCCC1)c1ccc(Nc2nccc(-n3cc(C(N)=O)c4ccccc43)n2)cc1 [Compound 90, 1-(2-{4-[methyl-(2-pyrrolidin-1-ylethyl)-amino]-phenylamino}-pyrimidin-4-yl)-1H-indole-3-carboxamide] the IC50 was 1 to 10 nM. Work on COc1cc(Nc2nccc(-n3cc(C(N)=O)c4ccccc43)n2)ccc1N(C)CCN1CCCC1 [Compound 91] yielded an IC50 of 1 to 10 nM. CN(CCN1CCCC1)c1ccc(Nc2nccc(-n3cc(C(N)=O)c4ccccc43)n2)cc1F [Compound 92, 1-(2-{3-fluoro-4-[methyl-(2-pyrrolidin-1-yl-ethyl)-amino]-phenylamino}-pyrimidin-4-yl)-1H-indole-3-carboxamide] gave an IC50 of 100 to 1000 nM. Molecule CN(CCN1CCCC1)c1ccc(Nc2ncc(F)c(-n3cc(C(N)=O)c4ccccc43)n2)cc1 [Compound 93, 1-(5-fluoro-2-{4-[methyl-(2-pyrrolidin-1-yl-ethyl)-amino]-phenylamino}-pyrimidin-4-yl)-1H-indole-3-carboxamide] has an IC50 of 1 to 10 nM. Molecule CN(CCN1CCCC1)c1ccc(Nc2ncc(Cl)c(-n3cc(C(N)=O)c4ccccc43)n2)cc1 [Compound 94, 1-(5-chloro-2-{4-[methyl-(2-pyrrolidin-1-yl-ethyl)-amino]-phenylamino}-pyrimidin-4-yl)-1H-indole-3-carboxamide] has an IC50 of 1 to 10 nM. In the case of CN(CCN1CCCC1)c1ccc(Nc2ncc(F)c(-n3cc(C(N)=O)c4ccccc43)n2)cc1F [Compound 95, 1-(5-fluoro-2-{3-fluoro-4-[methyl-(2-pyrrolidin-1-yl-ethyl)-amino]-phenylamino}-pyrimidin-4-yl)-1H-indole-3-carboxamide], the IC50 is reported as 10 to 100 nM. In the case of Cc1cc(Nc2ncc(F)c(-n3cc(C(N)=O)c4ccccc43)n2)ccc1N(C)CCN1CCCC1 [Compound 96, 1-(5-fluoro-2-{3-methyl-4-[methyl-(2-pyrrolidin-1-yl-ethyl)-amino]-phenylamino}-pyrimidin-4-yl)-1H-indole-3-carboxamide], the IC50 is reported as 1 to 10 nM. Cc1cc(Nc2ncc(Cl)c(-n3cc(C(N)=O)c4ccccc43)n2)ccc1N(C)CCN1CCCC1 [Compound 97, 1-(5-chloro-2-{3-methyl-4-[methyl-(2-pyrrolidin-1-yl-ethyl)-amino]-phenylamino}-pyrimidin-4-yl)-1H-indole-3-carboxamide] was tested, and the IC50 was 1 to 10 nM. COc1cc(Nc2ncc(F)c(-n3cc(C(N)=O)c4ccccc43)n2)ccc1N(C)CCN1CCCC1 [Compound 98, 1-(5-fluoro-2-{3-methoxy-4-[methyl-(2-pyrrolidin-1-yl-ethyl)-amino]-phenylamino}-pyrimidin-4-yl)-1H-indole-3-carboxamide] gave an IC50 of 1 to 10 nM. COc1cc(Nc2ncc(Cl)c(-n3cc(C(N)=O)c4ccccc43)n2)ccc1N(C)CCN1CCCC1 [Compound 99, 1-(5-chloro-2-{3-methoxy-4-[methyl-(2-pyrrolidin-1-yl-ethyl)-amino]-phenylamino}-pyrimidin-4-yl)-1H-indole-3-carboxamide] showed an IC50 of 1 to 10 nM. Work on COc1cc(Nc2ncc(C)c(-n3cc(C(N)=O)c4ccccc43)n2)ccc1N(C)CCN1CCCC1 [Compound 100, 1-(2-{3-methoxy-4-[methyl-(2-pyrrolidin-1-yl-ethyl)-amino]-phenylamino}-5-methyl-pyrimidin-4-yl)-1H-indole-3-carboxamide] yielded an IC50 of 1 to 10 nM. CNC(=O)c1cn(-c2ccnc(Nc3ccc(N4CCNCC4)cc3)n2)c2ccccc12 [Compound 101, 1-[2-(4-piperazin-1-yl-phenylamino)-pyrimidin-4-yl]-1H-indole-3-carboxmethylamide] showed an IC50 of 100 to 1000 nM.
